In brackets after ≈: the same amount, converted by molar mass.
What was measured:
Format in all cases: functional
Vibrio splendidus [1] = assay: Antimicrobial activity against Vibrio splendidus 12B01 expressing plasmid-mediated QnrS-like quinolone resistance determinants
Vibrio splendidus [2] = assay: Antimicrobial activity against Vibrio splendidus LGP32 expressing plasmid-mediated QnrS-like quinolone resistance determinants
Escherichia coli [3] = assay: Antimicrobial activity against Escherichia coli TOP10
Escherichia coli [4] = assay: Antimicrobial activity against Escherichia coli TOP10 harbouring pVS1 expressing quinolone resistant Vibrio splendidus 12B01 QnrVS1 gene
Escherichia coli [5] = assay: Antimicrobial activity against Escherichia coli TOP10 harbouring pS2 plasmid expressing quinolone resistant QnrS2 gene
Escherichia coli [6] = assay: Antimicrobial activity against Escherichia coli TOP10 harbouring pS1 plasmid expressing quinolone resistant QnrS1 gene
Escherichia coli [7] = assay: Antimicrobial activity against Escherichia coli TOP10 harbouring pVS2 expressing quinolone resistant Vibrio splendidus LGP32 QnrVS2 gene
Escherichia coli [8] = assay: Antimicrobial activity against Escherichia coli TOP10 harbouring p0 plasmid expressing pCR-BluntII-TOPO

SMILES | MIC (Vibrio splendidus [1]) [µg/mL] | MIC (Vibrio splendidus [2]) [µg/mL] | MIC (Escherichia coli [3]) [µg/mL] | MIC (Escherichia coli [4]) [µg/mL] | MIC (Escherichia coli [5]) [µg/mL] | MIC (Escherichia coli [6]) [µg/mL] | MIC (Escherichia coli [7]) [µg/mL] | MIC (Escherichia coli [8]) [µg/mL]
O=C(O)c1cn(C2CC2)c2cc(N3CCNCC3)c(F)cc2c1=O [CIPROFLOXACIN] | 0.25 (≈ 0.754 µM) | 0.25 (≈ 0.754 µM) | < 0.01 | – | – | – | – | –
COc1c(N2C[C@@H]3CCCN[C@@H]3C2)c(F)cc2c(=O)c(C(=O)O)cn(C3CC3)c12 [MOXIFLOXACIN] | 0.25 (≈ 0.623 µM) | 0.25 (≈ 0.623 µM) | < 0.01 | 0.12 (≈ 0.299 µM) | 0.25 (≈ 0.623 µM) | 0.25 (≈ 0.623 µM) | 0.12 (≈ 0.299 µM) | –
CCn1cc(C(=O)O)c(=O)c2ccc(C)nc21 [NALIDIXIC ACID] | 2 (≈ 8.61 µM) | 4 (≈ 17.2 µM) | 1 (≈ 4.31 µM) | 8 (≈ 34.4 µM) | 8 (≈ 34.4 µM) | 8 (≈ 34.4 µM) | 8 (≈ 34.4 µM) | 1 (≈ 4.31 µM)
CC1COc2c(N3CCN(C)CC3)c(F)cc3c(=O)c(C(=O)O)cn1c23 (configuration not stated) [OFLOXACIN] | 0.25 (≈ 0.692 µM) | 0.5 (≈ 1.38 µM) | – | 0.25 (≈ 0.692 µM) | – | – | 0.25 (≈ 0.692 µM) | –
CCn1cc(C(=O)O)c(=O)c2cc(F)c(N3CCNCC3)cc21 [NORFLOXACIN] | 0.25 (≈ 0.783 µM) | 0.5 (≈ 1.57 µM) | 0.03 (≈ 0.0939 µM) | 0.5 (≈ 1.57 µM) | 1 (≈ 3.13 µM) | 1 (≈ 3.13 µM) | 0.5 (≈ 1.57 µM) | 0.03 (≈ 0.0939 µM)
C[C@@H]1CN(c2c(F)c(N)c3c(=O)c(C(=O)O)cn(C4CC4)c3c2F)C[C@H](C)N1 [SPARFLOXACIN] | 0.25 (≈ 0.637 µM) | 0.5 (≈ 1.27 µM) | < 0.01 | 0.12 (≈ 0.306 µM) | 0.25 (≈ 0.637 µM) | 0.25 (≈ 0.637 µM) | 0.12 (≈ 0.306 µM) | –

Reference: ChEMBL document CHEMBL1150794, “Vibrio splendidus as the source of plasmid-mediated QnrS-like quinolone resistance determinants” (2007)
